This note sets out measurements from patent US5464739A, “Composition method for determining the presence of leukocyte cells, esterase or protease in a test sample” (Bayer Corporation, priority 1994, dated 1995).

For assay [1], the target named is T1, human leukocyte elastase (HLE) (Homo sapiens, UniProt P08246).
T1 sequence (P08246 30-247): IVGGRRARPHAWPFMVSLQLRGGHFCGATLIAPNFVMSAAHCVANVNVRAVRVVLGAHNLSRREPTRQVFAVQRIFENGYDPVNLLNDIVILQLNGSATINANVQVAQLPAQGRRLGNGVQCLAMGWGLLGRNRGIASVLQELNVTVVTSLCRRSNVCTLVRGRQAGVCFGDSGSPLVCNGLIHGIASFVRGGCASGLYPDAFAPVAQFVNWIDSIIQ
The assay is described as follows: Dry phase test strip assay of chromogenic substrates for HLE (reflectance at 557 nm, K/S). The assay is classed as biochemical. As to conditions: for K/S: response at 120 seconds; for Change in K/S: 120 seconds; for Response to HLE / hydrolysis by HLE, in words: test strip, NDNSA. As for the experimental part:
In accordance with the method of the present invention, a test device was prepared which was sensitive to the presence of leukocyte esterase. An aqueous solution including 0.8M borate-sodium hydroxide buffer (pH 8.8) and 1% by weight of polyvinylpyrrolidone (PVP K-60 available from ISP Corp., Wayne, N.J.) first was prepared. A 4 inch wide strip of WHATMAN 3MM filter paper, available commercially from Whatman, Ltd., Maidenhead, Kent, U.K., then was impregnated with the aqueous solution. The impregnated filter paper strip next was dried in an Air Foil paper dryer, available from Thermoelectron, Kaukauna, Wis., at 79° C. to 121° C. for about 5 to 6 minutes.
The dried, impregnated filter paper strip then was impregnated a second time by immersion into an acetone solution containing 1.1 mM of a lactate ester of structural formula […], 0.7 mM 4-diazo-3-hydroxy-7-nitro-1-naphthylsulfonate (i.e., the compound of structural formula (XX), also named 6-nitro-1,2-naphthoquinone diazide), 1.5% (v/v) 1-decanol and 3% (v/v) dimethylsulfoxide. After the second impregnation, the filter paper strip was dried at 60° C. for about 5 to 6 minutes to provide an off-white filter paper strip. The dried, twice-impregnated filter paper pad is secured to an opaque or transparent hydrophobic plastic handle with double-sided adhesive tape. The dried and twice-impregnated filter paper strip was next cut to an appropriate size for a test strip assay, such as a pad having dimensions of about 0.2 in (inch) (0.5 cm) by about 0.2 in (0.5 cm).
Individual test strips each incorporating one chromogenic lactate ester having a structural formula (X) through (XIV) and a diazonium salt coupling agent were quickly immersed into standardized solutions containing 0, 19 or 48 ng/mL HLE, then removed. Approximately two minutes after contacting a standardized HLE solution, the reflectance of the test pad of the test strip was measured at 557 nm (nanometers) on a CLINITEK® 10 clinical reflectance meter, available from Miles, Inc., Elkhart, Ind.
The reflectance, R, as taken from the reflectance scale of zero to one, was incorporated into the Kubelka-Munk function:
wherein K is the absorption coefficient, S is the scattering coefficient and R is reflectance. The reflectance values determined at 557 nm were used to calculate the K/S values. The K/S values are proportional to test strip color, therefore the greater the K/S value, the greater the degree and intensity of the color transition of the test strip and the greater the concentration of HLE in the test strip.
Dry phase test strips incorporating the lactate ester of structural formula (X), and prepared as discussed above, were compared to dry phase test strips incorporating the corresponding alanine derivative (I) for an ability to detect HLE in urine. A comparison also was made between the diazonium salt coupling agents DNSA (XX) and NDNSA (XXI). The test strips were otherwise identical. The results tabulated below were obtained after quickly immersing the individual reagent strips into standardized HLE solutions. Two minutes after immersion, the test strips were examined for a chromogenic response as described above.

The target of assay [2] is T1, human leukocyte elastase (HLE). The assay is described as above. The class given is biochemical. As to conditions: for K/S: response at 120 seconds; for Change in K/S: between 0 and 19 ng/mL HLE; for Change in K/S / Response between 200 and 500 ng/mL HLE, in words: 120 seconds; for ΔK/S (557 mm) at 120 seconds: NDNSA (XXI); for Response between 200 and 500 ng/mL HLE, in words: test strip, NDNSA.

Setting [3] is: HLE 0 ng/mL, diazonium salt NDNSA, 557 nm.
Setting [4] is: HLE 19 ng/mL, diazonium salt NDNSA, 557 nm.
Setting [5] is: between 0 and 19 ng/mL HLE, diazonium salt NDNSA.
Where [6] appears, read: HLE 48 ng/mL, diazonium salt NDNSA, 557 nm.
Setting [7] is: between 0 and 48 ng/mL HLE, diazonium salt NDNSA.
Where [8] appears, read: change between 0 and 5 ng/mL HLE.
[9] abbreviates: change between 0 and 10 ng/mL HLE.
[10] abbreviates: change between 0 and 20 ng/mL HLE.
Setting [11] is: change between 0 and 100 ng/mL HLE.
The mark [12] stands for this setting: change between 0 and 200 ng/mL HLE.
The mark [13] stands for this setting: change between 0 and 500 ng/mL HLE.
Where [14] appears, read: Example 10, HLE 0 ng/mL, diazonium salt not given (as in Example 6).
[15] abbreviates: Example 10, HLE 19 ng/mL, diazonium salt not given (as in Example 6).
[16] abbreviates: Example 10, diazonium salt not stated.

Structures are written as SMILES.

As for `Cc1ccc(S(=O)(=O)N[C@@H](C)C(=O)Oc2c[nH]c(-c3ccccc3)c2)cc1` [Tosyl--Ala--OPP, 3-hydroxy-5-phenyl-pyrrole-N-tosyl-L-alanine ester], the K/S came to 0.044 in assay [1] (setting [3]); 0.308 in assay [1] (setting [4]); 0.021 in assay [2] (HLE 0 ng/mL, diazonium salt DNSA, 557 nm); 0.146 in assay [2] (HLE 19 ng/mL, diazonium salt DNSA, 557 nm). For the same compound, the “Change in K/S” value was found to be 0.264 in assay [1] (setting [5]) and 0.125 in assay [2] (diazonium salt DNSA).
Take `COC(=O)CCS(=O)(=O)O[C@@H](C)C(=O)Oc1c[nH]c(-c2ccccc2)c1` [MeOSucc--SO2 -(L)-Lac--OPP]: the results for the K/S in assay [1] (setting [3]), in assay [1] (setting [4]) and in assay [1] (setting [6]) were 0.177, 0.514 and 0.916, respectively. The “Change in K/S” value in assay [1] (setting [5]) was found to be 0.337; in assay [1] (setting [7]), 0.739. The “Response to HLE / hydrolysis by HLE, in words” value in assay [1] is “sufficient to assay for HLE”.
As to `C[C@H](NC(=O)c1ccccc1)C(=O)Oc1c[nH]c(-c2ccccc2)c1` [Ph--CO--R--OPP, R = Alanine], the K/S in assay [1] (setting [3]) is given as 0.038; in assay [1] (setting [4]), 0.039. Also, in assay [1] (setting [5]), the “Change in K/S” value is reported as 0.001.
Consider `CCCS(=O)(=O)O[C@@H](C)C(=O)Oc1c[nH]c(-c2ccccc2)c1` [n-Pr--SO2 --Lac--OPP, nPr--SO2 -(L)-Lac--OPP], for which the results for the K/S in assay [1] (setting [3]), in assay [1] (setting [4]) and in assay [1] (setting [6]) were 0.100, 0.498 and 1.049, respectively. Moreover, the “Change in K/S” value in assay [1] (setting [5]) is recorded as 0.398; in assay [1] (setting [7]), 0.949. The “ΔK/S (557 mm) at 120 seconds” value is given as 0.108 in assay [2] (setting [8]); 0.257 in assay [2] (setting [9]); 0.533 in assay [2] (setting [10]); 1.462 in assay [2] (setting [11]); 1.693 in assay [2] (setting [12]); 1.915 in assay [2] (setting [13]). Also, the “Response between 200 and 500 ng/mL HLE, in words” value in assay [2] is listed as “continues to increase”.
Consider `C[C@H](OC(=O)c1ccccc1)C(=O)Oc1c[nH]c(-c2ccccc2)c1` [Ph--CO--R--OPP, R = Lactate (XI), PhCO-(L)-Lac--OPP], for which the K/S in assay [1] (setting [3]) amounted to 0.041; in assay [1] (setting [4]), 0.106. The “Change in K/S” value in assay [1] (setting [5]) is listed as 0.065.
With `C[C@H](NS(=O)(=O)c1cccs1)C(=O)Oc1c[nH]c(-c2ccccc2)c1` [2-Thiophene-SO2 --R--OPP, R = Alanine], the K/S in assay [1] (setting [14]) came out at 0.050; in assay [2] (setting [15]) it was 0.224. Moreover, the “Change in K/S” value in assay [2] (setting [16]) amounted to 0.174.
The corresponding values for `C[C@H](OS(=O)(=O)c1cccs1)C(=O)Oc1c[nH]c(-c2ccccc2)c1` [2-Thiophene-SO2-(L)-Lac-OPP] are 0.03, 0.385 and 0.332.
For the compound `Cc1ccc(S(=O)(=O)O[C@@H](C)C(=O)Oc2c[nH]c(-c3ccccc3)c2)cc1` [Tosyl-(L)--Lac--OPP, 3-(O-tosyl-(L)-lactoyl)-5-phenylpyrrole], the K/S in assay [1] (setting [3]) worked out at 0.046; in assay [1] (setting [4]) it was 0.348. Besides, the “Change in K/S” value in assay [1] (setting [5]) was 0.302. Moreover, the “Response to HLE / hydrolysis by HLE, in words” value in assay [1] was “readily hydrolyzed by the enzyme HLE”.
With `COC(=O)CCS(=O)(=O)N[C@@H](C)C(=O)Oc1c[nH]c(-c2ccccc2)c1`, the K/S came to 0.074 in assay [1] (setting [3]), 0.435 in assay [1] (setting [4]) and 0.976 in assay [1] (setting [6]). Also, the “Change in K/S” value stood at 0.361 in assay [1] (setting [5]) and 0.902 in assay [1] (setting [7]).
Take `CCCS(=O)(=O)N[C@@H](C)C(=O)Oc1c[nH]c(-c2ccccc2)c1` [n-Pr--SO2 --Ala--OPP]: the K/S in assay [1] (setting [3]) was determined as 0.050; in assay [1] (setting [4]), 0.363; in assay [1] (setting [6]), 0.881. Moreover, the results for the “Change in K/S” value in assay [1] (setting [5]) and in assay [1] (setting [7]) were 0.313 and 0.831, respectively. For the same compound, the “ΔK/S (557 mm) at 120 seconds” value is reported as 0.065 in assay [2] (setting [8]); 0.165 in assay [2] (setting [9]); 0.353 in assay [2] (setting [10]); 1.474 in assay [2] (setting [11]); 1.797 in assay [2] (setting [12]); 1.628 in assay [2] (setting [13]). The “Response between 200 and 500 ng/mL HLE, in words” value in assay [2] was “no difference in response”.
